Drawing on US8163771B2, “11 β-HSD1 modulators” (Exelixis, Inc., priority 2008, dated 2012), this text covers IC50 for 26 compounds.

The test deals with T1, recombinant human 11 β-HSD1 (Homo sapiens, UniProt P28845).
T1 construct: made in house; host or cells: E. coli
T1 sequence (P28845 whole entry): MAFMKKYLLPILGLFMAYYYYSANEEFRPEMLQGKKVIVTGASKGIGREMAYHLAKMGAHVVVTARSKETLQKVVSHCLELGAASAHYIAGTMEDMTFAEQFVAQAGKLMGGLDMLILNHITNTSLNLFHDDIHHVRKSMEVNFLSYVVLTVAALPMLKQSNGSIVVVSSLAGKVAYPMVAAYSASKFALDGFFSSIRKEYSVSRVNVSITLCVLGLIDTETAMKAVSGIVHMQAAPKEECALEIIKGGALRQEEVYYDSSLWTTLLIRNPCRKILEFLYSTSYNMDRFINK
Nature of the test: 11 β-HSD1 SPA Assay (Scintillation Proximity Assay). The format is biochemical. In short, it runs like this:
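E. coli-expressed human enzyme (30-100 nM) with tritiated cortisone 40 nM and NADPH 1 mM in HEPES buffer pH7.4, 2 hours at room temperature. Stopped with protein A SPA beads carrying anti-cortisol antibody and glycyrrhetinic acid; counted after overnight incubation. IC50 from percent inhibition between no-enzyme and no-compound signals.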
Background: Scintillation proximity formats need no separation of bound from free tracer.
In the case of `CC(C)(Oc1ccc(Cl)cc1Cl)C(=O)N[C@H]1C[C@H]2CC[C@@H](C1)N2c1ccc(NC(=O)CC(F)(F)F)cc1F` [Example 139, N-{4-[3-endo-({2-[(2,4-dichlorophenyl)oxy]-2-methylpropanoyl}amino)-8-azabicyclo[3.2.1]oct-8-yl]-3-fluorophenyl}-3,3,3-trifluoropropanamide], the IC50 was less than 200 nM.

`CC(C)(Oc1cc(C(C)(C)O)c(Cl)cc1Cl)C(=O)N[C@H]1C[C@H]2CC[C@@H](C1)N2c1ccc(C(=O)NCC(F)F)c[n+]1[O-]` [Example 479, 6-[3-endo-({2-[2,4-dichloro-5-(2-hydroxypropan-2-yl)phenoxy]-2-methylpropanoyl}amino)-8-azabicyclo[3.2.1]oct-8-yl]-N-(2,2-difluoroethyl)pyridine-3-carboxamide 1-oxide]: the IC50 is less than 2000 nM.

Consider `CC(C)(Oc1ccccc1C(F)(F)F)C(=O)N[C@H]1C[C@H]2CC[C@@H](C1)N2c1ccc(C(=O)NCC(F)(F)F)cn1` [Example 112, 6-{3-endo-[(2-methyl-2-{[2-(trifluoromethyl)phenyl]oxy}propanoyl)amino]-8-azabicyclo[3.2.1]oct-8-yl}-N-(2,2,2-trifluoroethyl)pyridine-3-carboxamide], for which the IC50 is less than 200 nM.

Regarding `CC(C)(Oc1ccc(Cl)cc1Cl)C(=O)N[C@H]1C[C@H]2CC[C@@H](C1)N2c1ncc(C(=O)NCC(F)(F)F)cc1F` [Example 160, 6-[3-endo-({2-[(2,4-dichlorophenyl)oxy]-2-methylpropanoyl}amino)-8-azabicyclo[3.2.1]oct-8-yl]-5-fluoro-N-(2,2,2-trifluoroethyl)pyridine-3-carboxamide], the IC50 was less than 200 nM.

Take `CC(C)NC(=O)c1ccc(N2[C@@H]3CC[C@H]2C[C@@H](NC(=O)C(C)(C)Oc2ccc(F)c(F)c2)C3)nc1` [Example 85, 6-[3-endo-({2-[(3,4-difluorophenyl)oxy]-2-methylpropanoyl}amino)-8-azabicyclo[3.2.1]oct-8-yl]-N-(1-methylethyl)pyridine-3-carboxamide]: the IC50 was less than 2000 nM.

Regarding `CC(C)(O)CNC(=O)c1ccc(N2[C@@H]3CC[C@H]2C[C@@H](NC(=O)C(C)(C)Oc2ccc(Cl)cc2OC(F)(F)F)C3)nc1` [Example 438, 6-[3-endo-({2-[4-chloro-2-(trifluoromethoxy)phenoxy]-2-methylpropanoyl}amino)-8-azabicyclo[3.2.1]oct-8-yl]-N-(2-hydroxy-2-methylpropyl)pyridine-3-carboxamide], the IC50 is less than 200 nM.

For the compound `CC(C)(Oc1ccc(F)cc1C(F)(F)F)C(=O)N[C@H]1C[C@H]2CC[C@@H](C1)N2c1ccc(-c2nnn[nH]2)nc1` [Example 292, 2-{[4-fluoro-2-(trifiuoromethyl)phenyl]oxy}-2-methyl-N-{8-[6-(1H-tetrazol-5-yl)pyridin-3-yl]-8-azabicyclo[3.2.1]oct-3-endo-yl}propanamide], the IC50 is less than 200 nM.

Regarding `CC(C)(Oc1ccc(Cl)cc1Cl)C(=O)N[C@H]1C[C@H]2CC[C@@H](C1)N2c1ccc(C(=O)NCCCn2ccnc2)cn1` [Example 341, 6-(3-endo-{[2-(2,4-dichlorophenoxy)-2-methylpropanoyl]amino}-8-azabicyclo[3.2.1]oct-8-yl)-N-[3-(1h-imidazol-1-yl)propyl]pyridine-3-carboxamide], the IC50 is less than 200 nM.

As for `CC(C)(Oc1ccc(C(F)(F)F)cc1)C(=O)N[C@H]1C[C@H]2CC[C@@H](C1)N2c1ccc(S(C)(=O)=O)cn1` [Example 243, 2-methyl-N-{8-[5-(methylsulfonyl)pyridin-2-yl]-8-azabicyclo[3.2.1]oct-3-endo-yl}-2-{[4-(trifluoromethyl)phenyl]oxy}propanamide], the IC50 was less than 2000 nM.

For the compound `CC(C)(Oc1ccc(F)cc1Cl)C(=O)N[C@H]1C[C@H]2CC[C@@H](C1)N2c1ccc(C(=O)NCC(F)(F)F)cn1` [Example 52, 6-[3-endo-({2-[(2-chloro-4-fluorophenyl)oxy]-2-methylpropanoyl}amino)-8-azabicyclo[3.2.1]oct-8-yl]-N-(2,2,2-trifluoroethyl)pyridine-3-carboxamide], the IC50 is less than 200 nM.

In the case of `CC(C)(Oc1ccc(F)c(F)c1)C(=O)N[C@H]1C[C@H]2CC[C@@H](C1)N2c1ccc(C(=O)NCC(F)(F)F)cc1` [Example 210, 4-[3-endo-({2-[(3,4-difluorophenyl)oxy]-2-methylpropanoyl}amino)-8-azabicyclo[3.2.1]oct-8-yl]-N-(2,2,2-trifluoroethyl)benzamide], the IC50 is less than 200 nM.

For the compound `CC(C)(Oc1ccccc1)C(=O)N[C@H]1C[C@H]2CC[C@@H](C1)N2c1ccc(C(=O)NC2CC2)cn1` [Example 15, N-cyclopropyl-6-(3-endo-{[2-methyl-2-(phenyloxy)propanoyl]amino}-8-azabicyclo[3.2.1]oct-8-yl)pyridine-3-carboxamide], the IC50 is less than 200 nM.

For `CC(C)(Oc1cc(OCCN2CCCC2)c(Cl)cc1Cl)C(=O)N[C@H]1C[C@H]2CC[C@@H](C1)N2c1ccc(C(=O)NCC(F)(F)F)cn1` [Example 405, 6-(3-endo-(2-(2,4-dichloro-5-(2-(pyrrolidin-1-yl)ethoxy)phenoxy)-2-methylpropanamido)-8-azabicyclo[3.2.1]octan-8-yl)-N-(2,2,2-trifluoroethyl)nicotinamide], the IC50 was less than 200 nM.

With `CC(C)(Oc1ccc(Cl)cc1Cl)C(=O)N1[C@@H]2CC[C@H]1C[C@@H](Nc1ccc(C(N)=O)cn1)C2` [Example 302, 6-[(8-{2-[(2,4-dichlorophenyl)oxy]-2-methylpropanoyl}-8-azabicyclo[3.2.1]oct-3-endo-yl)amino]pyridine-3-carboxamide], the IC50 was less than 200 nM.

On to `CC(C)(Oc1ccc2ccccc2c1)C(=O)N[C@H]1C[C@H]2CC[C@@H](C1)N2c1ccc(C(=O)NCC(F)(F)F)cn1` [Example 338, 6-(3-endo-{[2-methyl-2-(naphthalen-2-yloxy)propanoyl]amino}-8-azabicyclo[3.2.1]oct-8-yl)-N-(2,2,2-trifluoroethyl)pyridine-3-carboxamide], for which the IC50 is less than 200 nM.

Turning to `CC(C)(Oc1ccc(Cl)cc1Cl)C(=O)N[C@H]1C[C@H]2CC[C@@H](C1)N2c1ccc(C(=O)NCCO)cn1` [Example 367, 6-(3-endo-{[2-(2,4-dichlorophenoxy)-2-methylpropanoyl]amino}-8-azabicyclo[3.2.1]oct-8-yl)-N-(2-hydroxyethyl)pyridine-3-carboxamide], the IC50 was less than 200 nM.

In the case of `CC(C)(Oc1ccc(Cl)cc1Cl)C(=O)N[C@H]1C[C@H]2CC[C@@H](C1)N2Cc1ccc(C(N)=O)cc1` [Example 295, 4-{[3-endo-({2-[(2,4-dichlorophenyl)oxy]-2-methylpropanoyl}amino)-8-azabicyclo[3.2.1]oct-8-yl]methyl}benzamide], the IC50 is less than 2000 nM.

As for `COCCOc1cc(OC(C)(C)C(=O)N[C@H]2C[C@H]3CC[C@@H](C2)N3c2ccc(C(=O)NCC(F)(F)F)cn2)c(Cl)cc1Cl` [Example 382, 6-[3-endo-({2-[2,4-dichloro-5-(2-methoxyethoxy)phenoxy]-2-methylpropanoyl}amino)-8-azabicyclo[3.2.1]oct-8-yl]-N-(2,2,2-trifluoroethyl)pyridine-3-carboxamide], the IC50 was less than 200 nM.

For the compound `O=C(N[C@H]1C[C@H]2CC[C@@H](C1)N2c1ncccc1C(F)(F)F)C1(c2ccc(Cl)cc2)CC1` [Example 5], the IC50 was less than 2000 nM.

Take `CC(C)(Oc1c(F)cc(F)cc1F)C(=O)N[C@H]1C[C@H]2CC[C@@H](C1)N2c1ccc(S(C)(=O)=O)cc1` [Example 260, 2-methyl-N-{8-[4-(methylsulfonyl)phenyl]-8-azabicyclo[3.2.1]oct-3-endo-yl}-2-[(2,4,6-trifluorophenyl)oxy]propanamide]: the IC50 is less than 200 nM.

`O=C(NC1CC1)c1ccc(N2[C@@H]3CC[C@H]2C[C@@H](NC(=O)C2(c4ccc(Cl)cc4)CC2)C3)cc1` [Example 62, 4-[3-endo-({[1-(4-chlorophenyl)cyclopropyl]carbonyl}amino)-8-azabicyclo[3.2.1]oct-8-yl]-N-cyclopropylbenzamide]: the IC50 is less than 200 nM.

Consider `CC(C)(Oc1ccc(Cl)cc1Cl)C(=O)N[C@H]1C[C@H]2CC[C@@H](C1)N2c1ccc(C(=O)NCc2ccncc2)cn1` [Example 342, 6-(3-endo-{[2-(2,4-dichlorophenoxy)-2-methylpropanoyl]amino}-8-azabicyclo[3.2.1]oct-8-yl)-N-(pyridin-4-ylmethyl)pyridine-3-carboxamide], for which the IC50 was less than 200 nM.

On to `CC(C)(Oc1ccc(Cl)c(F)c1)C(=O)N[C@H]1C[C@H]2CC[C@@H](C1)N2c1ccc(S(C)(=O)=O)cn1` [Example 240, 2-[(4-chloro-3-fluorophenyl)oxy]-2-methyl-N-{8-[5-(methylsulfonyl)pyridin-2-yl]-8-azabicyclo[3.2.1]oct-3-endo-yl}propanamide], for which the IC50 was less than 200 nM.

For the compound `CC(C)(Oc1ccc(Cl)cc1OCCO)C(=O)N[C@H]1C[C@H]2CC[C@@H](C1)N2c1ccc(C(=O)NCC(F)(F)F)cn1` [Example 389, 6-[3-endo-({2-[4-chloro-2-(2-hydroxyethoxy)phenoxy]-2-methylpropanoyl}amino)-8-azabicyclo[3.2.1]oct-8-yl]-N-(2,2,2-trifluoroethyl)pyridine-3-carboxamide], the concentration for half-maximal inhibition (IC50) is less than 200 nM.

Consider `O=C(NC1CC1)c1ccc(N2[C@@H]3CC[C@H]2C[C@@H](NC(=O)C2(Oc4ccccc4)CCC2)C3)nc1` [Example 46, N-cyclopropyl-6-[3-endo-({[1-(phenyloxy)cyclobutyl]carbonyl}amino)-8-azabicyclo[3.2.1]oct-8-yl]pyridine-3-carboxamide], for which the IC50 was less than 200 nM.

Turning to `CC(C)(Oc1ccc(Cl)cc1Cl)C(=O)N[C@H]1C[C@H]2CC[C@@H](C1)N2c1ccc(C(=O)NC2CC2)cc1` [Example 132, N-cyclopropyl-4-[3-endo-({2-[(2,4-dichlorophenyl)oxy]-2-methylpropanoyl}amino)-8-azabicyclo[3.2.1]oct-8-yl]benzamide], the IC50 is less than 200 nM.

By IC50 is commonly meant the concentration needed to halve the response being measured.
